This test concerns the target T1, RSV N-RNA complex (Human respiratory syncytial virus A, UniProt P03418).
T1 construct: Full-length N was produced by co-expression with the C-terminal domain of RSV P protein in E. coli BL21(DE3); made in house; host or cells: E. coli BL21(DE3), co-transformed with pET-N and pGEX-P(161–241)
The experiment in a line: biochemical. Type of test: binding. The note with it: for FP values compared to fluorescein at the same N-RNA concentrations: 200 nM probe, also bound to N-RNA. As for the experimental part: We carried out FP measurements using the fluorescent F11 peptide and N-RNA complex. […] No salt was added to promote high affinity.
We first measured binding of Fn peptides (200 nM) to N-RNA in Tris buffer by FP (Figure 5A,B). […] We fitted the data with ΔFPmax and Kd as parameters.
We therefore measured fluorescein FP in the presence of N-RNA. […] To test if fluorescein binds to the P-binding site on the N-RNA, we carried out a competition experiment with M76 (Figure 6C).
We first performed FP measurements in salt-free Tris pH 8 buffer (Figure 8A). We measured binding curves using 200 nM of fluorescent peptides.
Fluorescence polarization measurements were carried out on a Paradigm Detection Platform (Beckman Coulter, Brea, CA, USA) operating with a microplate reader, a fluorescein detection cartridge (excitation range 485/20 nm, emission range 535/25 nm for both parallel and perpendicular components) and the SpectraMax Pro 6.1 software (Molecular Devices, San Jose, CA, USA). Samples were placed in polystyrene black flat bottom 96-well microplates (Cellstar, Greiner bio-one, Frickenhausen, Germany) with 20 µL final volume in each well. If not stated otherwise, the final concentration of fluorescent ligands was 200 nM. The buffer was either 20 mM MES pH 6.5, salt-free or with 250 mM NaCl, or 20 mM Tris pH 8.0 salt-free or with 100 mM NaCl, supplemented with 0.01% Brij-35. Mixing was done using the corresponding plate reader option. The temperature was set to 20 °C. Data were recorded in top reading mode. Measurements were done in triplicate and after an incubation time of 30 min, if not indicated otherwise. Fluorescence polarization (FP) in mFP units was determined from the parallel (I∥) and perpendicular (I⊥) components of the emitted light according to Equation (4). A grating factor G of 1.2 was determined using 1 nM fluorescein in 1 mM NaOH and assuming a theoretical FP of 27 mFP [48]. Background signal was measured from wells containing only buffer, and the mean value was subtracted from each I∥ and I⊥ component. (4) FP (mP)=1000×(I∥−G∗I⊥)/(I∥+G×I⊥)
We assumed that the measured fluorescence polarization FP is a linear combination of the FP of the fluorescent probe in the absence of N protein (FPmin) and the FP of N-bound fluorescent probe (FPmax), weighted by the molar fraction. The molar fraction x = [P]bound/[P]0 can then be expressed as a ratio of FP differences (Equation (8)). (8) x=(FP−FPmin)/(FPmax−FPmin)=∆FP/∆FPmax
To determine the Kd value of a complex between a fluorescent probe and N protein, a series of samples with constant probe concentration and varying N concentration was measured. FP binding curves were fitted with a single binding site model and a 1:1 stoichiometry.

Where [1] appears, read: Kd, BCNn peptides 200 nM, Tris pH 8.0, no salt, single site model.
[2] abbreviates: apparent Kd, fluorescent molecules 200 nM, Tris pH 8 without salt, calculated assuming FPmax = 500 mFP.
Where [3] appears, read: Kd, Fn peptides 200 nM, Tris pH 8.0 without salt, single site model combined with linear contribution (*).
[4] abbreviates: Kd, Fn peptides 200 nM, Tris pH 8.0 without salt, single site binding model.

Peptide text beside a SMILES is read from it. * marks the point of attachment. FITC = O=C1OC2(c3ccc(O)cc3Oc3cc(O)ccc32)c2ccc(NC(=S)*)cc21; X1 = Cc1cc(C)n2c1C=C1C=CC(CCC(=O)*)=[N+]1[B-]2(C#N)C#N

`Cc1cc(C)n2c1C=C1C=CC(CCC(=O)N[C@@H](CC(C)C)C(=O)N[C@@H](CCC(=O)O)C(=O)N[C@@H](CC(C)C)C(=O)N[C@@H](CCC(=O)O)C(=O)N[C@@H](CC(=O)O)C(=O)N[C@@H](Cc3ccccc3)C(=O)O)=[N+]1[B-]2(C#N)C#N` [BCN6E, BCN-LELEDF-OH] (X1-LELEDF-OH): the Kd was determined as 2.3 ± 0.2 µM under setting [1] and 12.6 ± 1.6 µM (Kd, BCNn peptides 200 nM, Tris pH 8.0, with salt (100 mM NaCl), (*) saturation not reached). `O=C(O)c1ccccc1-c1c2ccc(=O)cc-2oc2cc(O)ccc12` [Fluorescein 1, Fluorescein]: the Kd under setting [2] was 91 ± 5 µM.

Regarding `CC(C)C[C@H](NC(=O)[C@H](CCC(=O)O)NC(=O)[C@H](CC(C)C)NC(=O)[C@H](CC(=O)O)NC(=O)[C@H](CC(N)=O)NC(=O)[C@H](CC(=O)O)NC(=O)[C@H](CCC(=O)O)NC(=O)[C@H](CC(=O)O)NC(=S)Nc1ccc2c(c1)C(=O)OC21c2ccc(O)cc2Oc2cc(O)ccc21)C(=O)N[C@@H](CCC(=O)O)C(=O)N[C@@H](CC(=O)O)C(=O)N[C@@H](Cc1ccccc1)C(=O)O` [F11EE, ϕ-DE232DNDLE237LEDF-OH] ({FITC}-DEDNDLELEDF-OH), the ΔFPmax is, setting by setting: (Fn peptides 200 nM, Tris pH 8.0 without salt, single site binding model) 114 ± 6 mFP; (Fn peptides 200 nM, Tris pH 8.0 without salt, single site model combined with linear contribution (*)) 93 ±13 mFP. In addition, the Kd under setting [3] was 0.15 µM. Besides, the “increase of affinity relative to F11 by phosphomimetic substitutions” value (Tris pH 8.0 without salt) came to 20 fold.

Turning to `Cc1cc(C)n2c1C=C1C=CC(CCC(=O)O)=[N+]1[B-]2(F)F` [4,4′ difluoro BODIPY FL 4, 4,4′ difluoro BODIPY FL], the “FP values compared to fluorescein at the same N-RNA concentrations” value (Tris pH 8 without salt) is listed as “markedly lower”. The Kd under setting [2] was 870 ± 140 µM. On to `O=C(O)CC[C@H](NC(=S)Nc1ccc2c(c1)C(=O)OC21c2ccc(O)cc2Oc2cc(O)ccc21)C(=O)N[C@@H](CC(=O)O)C(=O)N[C@@H](Cc1ccccc1)C(=O)O` [F3, ϕ-EDF-OH] ({FITC}-Glu-Asp-Phe-OH), for which, under setting [4], the Kd was 62 ± 19 µM. For the molecule `CC(C)C[C@H](NC(=O)[C@H](CCC(=O)O)NC(=O)[C@H](CC(C)C)NC(=O)[C@H](CC(=O)O)NC(=O)[C@H](CC(N)=O)NC(=O)[C@H](CC(=O)O)NC(=O)[C@H](CO)NC(=O)[C@H](CC(=O)O)NC(=S)Nc1ccc2c(c1)C(=O)OC21c2ccc(O)cc2Oc2cc(O)ccc21)C(=O)N[C@@H](CCC(=O)O)C(=O)N[C@@H](CC(=O)O)C(=O)N[C@@H](Cc1ccccc1)C(=O)O` [F11SE, ϕ-DS232DNDLE237LEDF-OH] ({FITC}-DSDNDLELEDF-OH), the Kd under setting [4] was less than 1 µM and the Kd under setting [3] is 0.62 µM.

`CC(C)C[C@H](NC(=S)Nc1ccc2c(c1)C(=O)OC21c2ccc(O)cc2Oc2cc(O)ccc21)C(=O)N[C@@H](CCC(=O)O)C(=O)N[C@@H](CC(=O)O)C(=O)N[C@@H](Cc1ccccc1)C(=O)O` [F4, ϕ-LEDF-OH] ({FITC}-LEDF-OH): under setting [4], the Kd turned out to be 35 ± 4 µM.

As for `Cc1cc(C)n2c1C=C1C=CC(CCC(=O)N[C@@H](CCC(=O)O)C(=O)N[C@@H](CC(=O)O)C(=O)N[C@@H](CC(N)=O)C(=O)N[C@@H](CC(=O)O)C(=O)N[C@@H](CC(C)C)C(=O)N[C@@H](CCC(=O)O)C(=O)N[C@@H](CC(C)C)C(=O)N[C@@H](CCC(=O)O)C(=O)N[C@@H](CC(=O)O)C(=O)N[C@@H](Cc3ccccc3)C(=O)O)=[N+]1[B-]2(C#N)C#N` [BCN10EE] (X1-EDNDLELEDF-OH), the Kd under setting [1] came out at 0.16 ± 0.03 µM.

As to `CCOC(=O)c1ccccc1-c1c2ccc(=O)cc-2oc2cc(O)ccc12` [Fluorescein ethyl ester 3, fluorescein ethyl ester], the Kd under setting [2] was 250 ± 27 µM. For `Cc1cc(C)n2c1C=C1C=CC(CCC(=O)N[C@@H](CC(=O)O)C(=O)N[C@@H](CC(C)C)C(=O)N[C@@H](CCC(=O)O)C(=O)N[C@@H](CC(C)C)C(=O)N[C@@H](CCC(=O)O)C(=O)N[C@@H](CC(=O)O)C(=O)N[C@@H](Cc3ccccc3)C(=O)O)=[N+]1[B-]2(C#N)C#N` [BCN7E, BCN-DLELEDF-OH] (X1-DLELEDF-OH), the Kd under setting [1] is 2.2 ± 0.2 µM. As for `COC(=O)c1ccccc1-c1c2ccc(=O)cc-2oc2cc(O)ccc12` [Fluorescein methyl ester 2, fluorescein methyl ester], the Kd under setting [2] is 200 ± 8 µM. For the molecule `Cc1cc(C)n2c1C=C1C=CC(CCC(=O)N[C@@H](CC(=O)O)C(=O)N[C@@H](CO)C(=O)N[C@@H](CC(=O)O)C(=O)N[C@@H](CC(N)=O)C(=O)N[C@@H](CC(=O)O)C(=O)N[C@@H](CC(C)C)C(=O)N[C@@H](CCC(=O)O)C(=O)N[C@@H](CC(C)C)C(=O)N[C@@H](CCC(=O)O)C(=O)N[C@@H](CC(=O)O)C(=O)N[C@@H](Cc3ccccc3)C(=O)O)=[N+]1[B-]2(C#N)C#N` [BCN11SE] (X1-DSDNDLELEDF-OH), the Kd under setting [1] turned out to be 0.8 µM. As to `CC(C)C[C@H](NC(=O)[C@H](CCC(=O)O)NC(=O)[C@H](CC(C)C)NC(=O)[C@H](CC(=O)O)NC(=O)[C@H](CC(N)=O)NC(=O)[C@H](CC(=O)O)NC(=S)Nc1ccc2c(c1)C(=O)OC21c2ccc(O)cc2Oc2cc(O)ccc21)C(=O)N[C@@H](CCC(=O)O)C(=O)N[C@@H](CC(=O)O)C(=O)N[C@@H](Cc1ccccc1)C(=O)O` [F9E, ϕ-DNDLE237LEDF-OH] ({FITC}-DNDLELEDF-OH), the Kd under setting [4] was 2.2 ± 0.3 µM. Take `Cc1cc(C)n2c1C=C1C=CC(CCC(=O)N[C@@H](CCC(=O)O)C(=O)N[C@@H](CC(C)C)C(=O)N[C@@H](CCC(=O)O)C(=O)N[C@@H](CC(=O)O)C(=O)N[C@@H](Cc3ccccc3)C(=O)O)=[N+]1[B-]2(C#N)C#N` [BCN5E, BCN-ELEDF-OH] (X1-ELEDF-OH): the Kd under setting [1] is 9.8 ± 0.9 µM. Turning to `CC(C)C[C@H](NC(=O)[C@H](CCC(=O)O)NC(=O)[C@H](CC(C)C)NC(=O)[C@H](CC(=O)O)NC(=S)Nc1ccc2c(c1)C(=O)OC21c2ccc(O)cc2Oc2cc(O)ccc21)C(=O)N[C@@H](CCC(=O)O)C(=O)N[C@@H](CC(=O)O)C(=O)N[C@@H](Cc1ccccc1)C(=O)O` [F7E, ϕ-DLE237LEDF-OH] ({FITC}-DLELEDF-OH), the Kd under setting [4] was 2.5 ± 0.3 µM.

Regarding `Cc1cc(C)n2c1C=C1C=CC(CCC(=O)O)=[N+]1[B-]2(C#N)C#N` [dicyano BODIPY FL 5, 3-(5,5-dicyano-7,9-dimethyl-5H-4λ^4,5λ^4-dipyrrolo[1,2-c:2′,1′-f][1,3,2]diazaborinin-3-yl)propanoic acid], the “FP values compared to fluorescein at the same N-RNA concentrations” value (Tris pH 8 without salt) is reported as “markedly lower”.
